Measured values reported in ChEMBL document CHEMBL1127186, “Probing a catalytic antibody active site using spin-labelled haptens” (Bioorg Med Chem Lett, 1993).

How the values were obtained:
[1] = Kinetic parameter of antibody 48G7 in 10 mM Tris HCl, 50 mM NaCl, pH 8.27
[2] = Dissociation constant from ESR titration experiments; format: physicochemical
[3] = Compound was evaluated for the inhibition of antibody (Antibody 48G7) catalyzed reaction

Structure (SMILES)	Km [1]	k cat [1]	Kd [2]	Ki [3]
COC(=O)CCCOC(=O)Oc1ccc([N+](=O)[O-])cc1	360 µM	0.437 s⁻¹	–	–
CC1(C)CC(OP(=O)(O)Oc2ccc([N+](=O)[O-])cc2)C(C)(C)N1[O] (stereo not given)	–	–	6.4 µM	–
COC(=O)CCCC(=O)Oc1ccc([N+](=O)[O-])cc1	300 µM	0.367 s⁻¹	–	–
CC1(C)CC(OP(=O)(O)Oc2ccc([N+](=O)[O-])cc2)CC(C)(C)N1[O]	–	–	4.3 µM	–
Cc1cccc(P(=O)(O)O)c1[N+](=O)[O-] [METHYLNITROPHENYLPHOSPHONATE]	–	–	–	0.56 µM
CC(=O)Oc1ccc([N+](=O)[O-])cc1	–	0.0633 s⁻¹	–	–
COC(=O)Oc1ccc([N+](=O)[O-])cc1	430 µM	0.123 s⁻¹	–	–
